The values that follow come from US20240174603A1 (Rappta Therapeutics Oy, priority 2021, published 2024).

The structures appear in SMILES notation.

For the first experiment, the system named is LNCaP cells. Briefly: LNCaP cell viability assay (MTS). The format is cell-based. Particulars: Homo sapiens, LNCaP cell line, 48 hours. The essentials:
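GI50 derived by nonlinear four-parameter curve fitting (bottom fixed at zero) of MTS viability data. Prostate LNCaP cells seeded at 5000/well were given compound doses from 1 to 80 µM one day after plating and assayed after 48 h of exposure.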
The GI50 is the concentration that inhibits growth by half. As to `CN(C)CC(NS(=O)(=O)c1ccc(OC2CC2)cc1)c1ccc(Cl)c(Cl)c1` (stereo not shown) [Compound 154, 4-cyclopropoxy-N-(1-(3,4-dichlorophenyl)-2-(dimethylamino)ethyl)benzenesulfonamide], it took 53.8 µM to inhibit growth by half (GI50).

For the molecule `CN(C)CC(NS(=O)(=O)c1ccc(OC(F)(F)F)nc1)c1ccc(Cl)c(Cl)c1` (stereo not shown) [Compound 157, N-(1-(3,4-dichlorophenyl)-2-(dimethylamino)ethyl)-6-(trifluoromethoxy)pyridine-3-sulfonamide], the GI50 was found to be 17.7 µM.

The experiment is the same for the next values; noted with them: Homo sapiens, LNCaP, 48 h, LNCaP cell line.
`CCCOC1CCN(CC(NS(=O)(=O)c2ccc(OC(F)(F)F)cc2)c2ccccc2)CC1` (stereo not shown) [Compound 118, N-(1-phenyl-2-(4-propoxypiperidin-1-yl)ethyl)-4-(trifluoromethoxy)benzenesulfonamide]: the GI50 was 42.4 µM. In the case of `Cc1cccc(C(CN(C)C)NS(=O)(=O)c2ccc(OC(F)(F)F)cc2)c1` (stereo not shown) [Compound 119, N-(2-(dimethylamino)-1-(m-tolyl)ethyl)-4-(trifluoromethoxy)benzenesulfonamide], the GI50 turned out to be 48.5 µM.

`CN(C)CC(NS(=O)(=O)c1ccc(OC(F)(F)F)cc1)c1cccc(C(F)(F)F)c1` (stereo not shown) [Compound 120, N-(2-(dimethylamino)-1-(3-(trifluoromethyl)phenyl)ethyl)-4-(trifluoromethoxy)benzenesulfonamide] showed a GI50 of 46.3 µM. On the same count and under the same terms, the same measure for `O=S(=O)(N[C@@H](CO)c1ccc(Cl)c(Cl)c1)c1ccc(OC(F)(F)F)cc1` [Compound 121, (R)—N-(1-(3,4-dichlorophenyl)-2-hydroxyethyl)-4-(trifluoromethoxy)benzenesulfonamide]: 40.2 µM; for `O=S(=O)(N[C@H](CO)c1ccc(Cl)c(Cl)c1)c1ccc(OC(F)(F)F)cc1` [Compound 122, (S)—N-(1-(3,4-dichlorophenyl)-2-hydroxyethyl)-4-(trifluoromethoxy)benzenesulfonamide]: 43.4 µM. For `Cc1ccc(C(CN(C)C)NS(=O)(=O)c2ccc(OC(F)(F)F)cc2)cc1` (stereo not shown) [Compound 123, N-(2-(dimethylamino)-1-(p-tolyl)ethyl)-4-(trifluoromethoxy)benzenesulfonamide], it took 45.2 µM to inhibit growth by half (GI50). On the same count and under the same terms, the same measure for `Cn1ccc(S(=O)(=O)NCC(NS(=O)(=O)c2ccc(OC(F)(F)F)cc2)c2ccccc2)c1` (stereo not shown) [Compound 124, 1-methyl-N-(2-phenyl-2-((4-(trifluoromethoxy)phenyl)sulfonamido)ethyl)-1H-pyrrole-3-sulfonamide]: 49.7 µM; for `CN(C)CC(NS(=O)(=O)c1ccc(OC(F)(F)F)cc1)c1ccc(Cl)cc1` (stereo not shown) [Compound 125, N-(1-(4-chlorophenyl)-2-(dimethylamino)ethyl)-4-(trifluoromethoxy)benzenesulfonamide]: 57 µM; for `CN=S(=O)(NC(CN(C)C)c1ccc(Cl)c(Cl)c1)c1ccc(OC(F)(F)F)cc1` (stereo not shown) [Compound 126, N-(1-(3,4-dichlorophenyl)-2-(dimethylamino)ethyl)-N′-methyl-4-(trifluoromethoxy)benzenesulfonimidamide]: 24.9 µM. On the same count and under the same terms, the same measure for `CNS(=O)(=NC(CN(C)C)c1ccc(Cl)c(Cl)c1)c1ccc(OC(F)(F)F)cc1` (stereo not shown) [Compound 127, N′-(1-(3,4-dichlorophenyl)-2-(dimethylamino)ethyl)-N-methyl-4-(trifluoromethoxy)benzenesulfonimidamide]: 51.9 µM. On the same count and under the same terms, the same measure for `CN(C)CC(NS(=O)(=O)c1cccc(OC(F)(F)F)c1)c1ccc(Cl)c(Cl)c1` (stereo not shown) [Compound 128, N-(1-(3,4-dichlorophenyl)-2-(dimethylamino)ethyl)-3-(trifluoromethoxy)benzenesulfonamide]: 21.1 µM; for `CN(C)CC(NS(=O)(=O)c1cccc(F)c1)c1ccc(Cl)c(Cl)c1` (stereo not shown) [Compound 129, N-(1-(3,4-dichlorophenyl)-2-(dimethylamino)ethyl)-3-fluorobenzenesulfonamide]: 69.9 µM; for `CN(C)CC(NS(=O)(=O)c1ccc(F)cc1)c1ccc(Cl)c(Cl)c1` (stereo not shown) [Compound 130, N-(1-(3,4-dichlorophenyl)-2-(dimethylamino)ethyl)-4-fluorobenzenesulfonamide]: 62.4 µM. With `Cc1ccccc1S(=O)(=O)NC(CN(C)C)c1ccc(Cl)c(Cl)c1` (stereo not shown) [Compound 131, N-(1-(3,4-dichlorophenyl)-2-(dimethylamino)ethyl)-2-methylbenzenesulfonamide], it took 49 µM to inhibit growth by half (GI50). Same read-out and setting: the same measure for `Cc1cccc(S(=O)(=O)NC(CN(C)C)c2ccc(Cl)c(Cl)c2)c1` (stereo not shown) [Compound 132, N-(1-(3,4-dichlorophenyl)-2-(dimethylamino)ethyl)-3-methylbenzenesulfonamide]: 40.5 µM; for `Cc1ccc(S(=O)(=O)NC(CN(C)C)c2ccc(Cl)c(Cl)c2)cc1` (stereo not shown) [Compound 133, N-(1-(3,4-dichlorophenyl)-2-(dimethylamino)ethyl)-4-methylbenzenesulfonamide]: 51.8 µM. `CN(C)CC(NS(=O)(=O)c1cc(F)cc(F)c1)c1ccc(Cl)c(Cl)c1` (stereo not shown) [Compound 134, N-(1-(3,4-dichlorophenyl)-2-(dimethylamino)ethyl)-3,5-difluorobenzenesulfonamide] returned a GI50 of 75.6 µM. `CN(C)CC(NS(=O)(=O)C1CCCCC1)c1ccc(Cl)c(Cl)c1` (stereo not shown) [Compound 135, N-(1-(3,4-dichlorophenyl)-2-(dimethylamino)ethyl)cyclohexanesulfonamide] displayed a GI50 of 57.3 µM. The same measure, in the same setting: the same measure for `CN(C)CC(NS(=O)(=O)CCc1ccccc1)c1ccc(Cl)c(Cl)c1` (stereo not shown) [Compound 136, N-(1-(3,4-dichlorophenyl)-2-(dimethylamino)ethyl)-2-phenylethane-1-sulfonamide]: 24.3 µM; for `CCCc1ccc(S(=O)(=O)NC(CN(C)C)c2ccc(Cl)c(Cl)c2)cc1` (stereo not shown) [Compound 137, N-(1-(3,4-dichlorophenyl)-2-(dimethylamino)ethyl)-4-propylbenzenesulfonamide]: 12.3 µM; for `CN(C)CC(NS(=O)(=O)c1ccc(Oc2ccccc2)cc1)c1ccc(Cl)c(Cl)c1` (stereo not shown) [Compound 138, N-(1-(3,4-dichlorophenyl)-2-(dimethylamino)ethyl)-4-phenoxybenzenesulfonamide]: 10.5 µM.

`CN(C)CC(NS(=O)(=O)c1ccc(Oc2ccc(C(F)(F)F)cc2)cc1)c1ccc(Cl)c(Cl)c1` (stereo not shown) [Compound 139, N-(1-(3,4-dichlorophenyl)-2-(dimethylamino)ethyl)-4-(4-(trifluoromethyl)phenoxy)benzenesulfonamide] registered a GI50 of 10.2 µM. `CN(C)CC(NS(=O)(=O)c1ccc(-c2ccccc2)cc1)c1ccc(Cl)c(Cl)c1` (stereo not shown) [Compound 143, N-(1-(3,4-dichlorophenyl)-2-(dimethylamino)ethyl)-[1,1′-biphenyl]-4-sulfonamide] displayed a GI50 of 11.2 µM.

Consider `CN(C)CC(NS(=O)(=O)c1cccc(-c2ccccc2)c1)c1ccc(Cl)c(Cl)c1` (stereo not shown) [Compound 144, N-(1-(3,4-dichlorophenyl)-2-(dimethylamino)ethyl)-[1,1′-biphenyl]-3-sulfonamide], for which the GI50 came to 14.4 µM. The same measure, in the same setting: the same measure for `CN(C)CC(NS(=O)(=O)c1cccc2ccccc12)c1ccc(Cl)c(Cl)c1` (stereo not shown) [Compound 145, N-(1-(3,4-dichlorophenyl)-2-(dimethylamino)ethyl)naphthalene-1-sulfonamide]: 21.7 µM; for `CN(C)CC(NS(=O)(=O)c1ccc2ccccc2c1)c1ccc(Cl)c(Cl)c1` (stereo not shown) [Compound 146, N-(1-(3,4-dichlorophenyl)-2-(dimethylamino)ethyl)naphthalene-2-sulfonamide]: 23.8 µM; for `CN(C)CC(NS(=O)(=O)c1ccc(OC(F)(F)F)cc1)c1ccc(Cl)c(Cl)c1` (stereo not shown) [Compound 147, N-(1-(3,4-dichlorophenyl)-2-(dimethylamino)ethyl)-4-(trifluoromethoxy)benzenesulfonamide]: 19.5 µM.

For `Cc1ccccc1C(CN(C)C)NS(=O)(=O)c1ccc(OC(F)(F)F)cc1` (stereo not shown) [Compound 150, N-(2-(dimethylamino)-1-(o-tolyl)ethyl)-4-(trifluoromethoxy)benzenesulfonamide], the GI50 turned out to be 59.6 µM. Same read-out and setting: the same measure for `CN(C)CC(NS(=O)(=O)c1ccc(OC(F)(F)F)cc1Cl)c1ccc(Cl)c(Cl)c1` (stereo not shown) [Compound 151, 2-chloro-N-(1-(3,4-dichlorophenyl)-2-(dimethylamino)ethyl)-4-(trifluoromethoxy)benzenesulfonamide]: 23.6 µM.

`CN(C)CC(NS(=O)(=O)c1ccc(OC(F)(F)F)c(Cl)c1)c1ccc(Cl)c(Cl)c1` (stereo not shown) [Compound 152, 3-chloro-N-(1-(3,4-dichlorophenyl)-2-(dimethylamino)ethyl)-4-(trifluoromethoxy)benzenesulfonamide] gave a GI50 of 12.1 µM. On the same count and under the same terms, the same measure for `CN(C)CC(NS(=O)(=O)c1ccc(OC(F)F)cc1)c1ccc(Cl)c(Cl)c1` (stereo not shown) [Compound 153, N-(1-(3,4-dichlorophenyl)-2-(dimethylamino)ethyl)-4-(difluoromethoxy)benzenesulfonamide]: 45.7 µM; for `CN(C)CC(NS(=O)(=O)c1ccc(OC(F)(F)F)cc1N)c1ccc(Cl)c(Cl)c1` (stereo not shown) [Compound 155, 2-amino-N-(1-(3,4-dichlorophenyl)-2-(dimethylamino)ethyl)-4-(trifluoromethoxy)benzenesulfonamide]: 21.3 µM; for `CN(C)CC(NS(=O)(=O)c1ccc2c(c1)OC(F)(F)O2)c1ccc(Cl)c(Cl)c1` (stereo not shown) [Compound 156, N-(1-(3,4-dichlorophenyl)-2-(dimethylamino)ethyl)-2,2-difluorobenzo[d][1,3]dioxole-5-sulfonamide]: 24.9 µM.

Consider `CN(C)CC(NS(=O)(=O)c1ccc(Cl)cc1F)c1ccc(Cl)c(Cl)c1` (stereo not shown) [Compound 160, 4-chloro-N-(1-(3,4-dichlorophenyl)-2-(dimethylamino)ethyl)-2-fluorobenzenesulfonamide], for which growth was halved (GI50) at 58.5 µM. For the molecule `CN(C)CC(NS(=O)(=O)c1ccc(C(F)(F)F)cc1)c1ccc(Cl)c(Cl)c1` (stereo not shown) [Compound 161, N-(1-(3,4-dichlorophenyl)-2-(dimethylamino)ethyl)-4-(trifluoromethyl)benzenesulfonamide], the GI50 came to 25.4 µM.
